{
  "source": "patent US8642736B2",
  "about": "“Casein complexes” (DSM IP Assets B. V., priority 2006, dated 2014)",
  "key": {"[1]": {"assay": "Dispersion stability of 10% dispersion: resveratrol content, upper part vs after mixing", "format": "physicochemical", "conditions": "aqueous dispersion; likely much less using similar dispersion conditions", "experimental": "The powder (2.5 g) was dispersed in deionized water (47.5 g) with stirring. The dispersion was centrifuged at 3000 rpm for 5 minutes (Sigma Centrifuge 6-10, Sigma Laborzentrifugen GmbH, Germany) to remove the un-dispersible material. The supernatant was lyophilized to yield 1.7 g powder. The powder (1 g) was suspended in deionized water (9 g) to give a 10% homogenous dispersion. A sample of the dispersion was placed in a test tube and stored at room temperature for 3 hours and then at 5° C. for 1 day. A small sample was taken from the upper part of the test tube and then a sample was taken after mixing. […] The results indicated the dispersion stability. The highly concentrate dispersion can be conveniently used for various applications in pharmaceuticals and cosmetics, food and feed, especially in beverages.\nA dispersion of more than 0.005% (likely much less using similar dispersion conditions) of non-complexed resveratrol would result in precipitation of resveratrol."}, "[2]": {"assay": "Storage stability: resveratrol in supernatant of aqueous dispersions (UV method)", "format": "physicochemical", "experimental": "Resveratrol-caseinate complex used was the oven-dried material described in Example 8 (non-dispersible material was not removed by centrifugation). Crystalline resveratrol was included for comparison.\nComplexed and crystalline resveratrol was dispersed in deionized water of pH 6.8 or 3.0 to give a final target dispersion concentration of 60 and 80 ppm. The desired pH was achieved by pH adjustment using dilute HCl or NaHCO3 The samples were heated in a water bath till 80° C. and then held at 80° C. for 1 minute. The samples were stored in the dark at 25° C. and 5° C. During storage, resveratrol recrystallized and precipitated in some samples. The resveratrol concentration in the supernatant were determined by a UV method and the results are shown below, […]"}, "[3]": {"conditions": "target 60 ppm, pH 3.0, stored in the dark at 5 C."}, "[4]": {"conditions": "target 60 ppm, pH 3.0, stored in the dark at 25 C."}, "[5]": {"conditions": "target 60 ppm, pH 6.8, stored in the dark at 5 C."}, "[6]": {"conditions": "target 60 ppm, pH 6.8, stored in the dark at 25 C."}, "[7]": {"conditions": "target 80 ppm, pH 3.0, stored in the dark at 5 C."}, "[8]": {"conditions": "target 80 ppm, pH 3.0, stored in the dark at 25 C."}, "[9]": {"conditions": "target 80 ppm, pH 6.8, stored in the dark at 5 C."}, "[10]": {"conditions": "target 80 ppm, pH 6.8, stored in the dark at 25 C."}},
  "data": [
    {"smiles": "Oc1ccc(C=Cc2cc(O)cc(O)c2)cc1", "note": "[Resveratrol, 3,4′,5-trihydroxystilbene]", "values": [
      {"measurement": "dispersion concentration that would result in precipitation of resveratrol", "setting": "[1]", "result": "more than 0.005%"},
      {"measurement": "Resveratrol in supernatant, Initial", "setting": "[2]; target 60 ppm, pH 3.0, 5 C.", "result": 58, "unit": "ppm"},
      {"measurement": "Resveratrol in supernatant, Initial", "setting": "[2]; target 60 ppm, pH 3.0, 25 C.", "result": 58, "unit": "ppm"},
      {"measurement": "Resveratrol in supernatant, 1 week", "setting": "[2]; [3]", "result": 28, "unit": "ppm"},
      {"measurement": "Resveratrol in supernatant, 1 week (% in parentheses)", "setting": "[2]; [3]", "result": 48, "unit": "%"},
      {"measurement": "Resveratrol in supernatant, 2.4 week", "setting": "[2]; [3]", "result": 19, "unit": "ppm"},
      {"measurement": "Resveratrol in supernatant, 2.4 week (% in parentheses)", "setting": "[2]; [3]", "result": 33, "unit": "%"},
      {"measurement": "Resveratrol in supernatant, 1 week", "setting": "[2]; [4]", "result": 43, "unit": "ppm"},
      {"measurement": "Resveratrol in supernatant, 1 week (% in parentheses)", "setting": "[2]; [4]", "result": 74, "unit": "%"},
      {"measurement": "Resveratrol in supernatant, 2.4 week", "setting": "[2]; [4]", "result": 39, "unit": "ppm"},
      {"measurement": "Resveratrol in supernatant, 2.4 week (% in parentheses)", "setting": "[2]; [4]", "result": 67, "unit": "%"},
      {"measurement": "Resveratrol in supernatant, Initial", "setting": "[2]; target 60 ppm, pH 6.8, 5 C.", "result": 60, "unit": "ppm"},
      {"measurement": "Resveratrol in supernatant, Initial", "setting": "[2]; target 60 ppm, pH 6.8, 25 C.", "result": 60, "unit": "ppm"},
      {"measurement": "Resveratrol in supernatant, 1 week", "setting": "[2]; [5]", "result": 23, "unit": "ppm"},
      {"measurement": "Resveratrol in supernatant, 1 week (% in parentheses)", "setting": "[2]; [5]", "result": 38, "unit": "%"},
      {"measurement": "Resveratrol in supernatant, 2.4 week", "setting": "[2]; [5]", "result": 17, "unit": "ppm"},
      {"measurement": "Resveratrol in supernatant, 2.4 week (% in parentheses)", "setting": "[2]; [5]", "result": 28, "unit": "%"},
      {"measurement": "Resveratrol in supernatant, 1 week", "setting": "[2]; [6]", "result": 45, "unit": "ppm"},
      {"measurement": "Resveratrol in supernatant, 1 week (% in parentheses)", "setting": "[2]; [6]", "result": 75, "unit": "%"},
      {"measurement": "Resveratrol in supernatant, 2.4 week", "setting": "[2]; [6]", "result": 39, "unit": "ppm"},
      {"measurement": "Resveratrol in supernatant, 2.4 week (% in parentheses)", "setting": "[2]; [6]", "result": 65, "unit": "%"},
      {"measurement": "Resveratrol in supernatant, Initial", "setting": "[2]; target 80 ppm, pH 3.0, 5 C.", "result": 80, "unit": "ppm"},
      {"measurement": "Resveratrol in supernatant, Initial", "setting": "[2]; target 80 ppm, pH 3.0, 25 C.", "result": 80, "unit": "ppm"},
      {"measurement": "Resveratrol in supernatant, 1 week", "setting": "[2]; [7]", "result": 28, "unit": "ppm"},
      {"measurement": "Resveratrol in supernatant, 1 week (% in parentheses)", "setting": "[2]; [7]", "result": 35, "unit": "%"},
      {"measurement": "Resveratrol in supernatant, 2.4 week", "setting": "[2]; [7]", "result": 16, "unit": "ppm"},
      {"measurement": "Resveratrol in supernatant, 2.4 week (% in parentheses)", "setting": "[2]; [7]", "result": 20, "unit": "%"},
      {"measurement": "Resveratrol in supernatant, 1 week", "setting": "[2]; [8]", "result": 47, "unit": "ppm"},
      {"measurement": "Resveratrol in supernatant, 1 week (% in parentheses)", "setting": "[2]; [8]", "result": 59, "unit": "%"},
      {"measurement": "Resveratrol in supernatant, 2.4 week", "setting": "[2]; [8]", "result": 38, "unit": "ppm"},
      {"measurement": "Resveratrol in supernatant, 2.4 week (% in parentheses)", "setting": "[2]; [8]", "result": 48, "unit": "%"},
      {"measurement": "Resveratrol in supernatant, Initial", "setting": "[2]; target 80 ppm, pH 6.8, 5 C.", "result": 79, "unit": "ppm"},
      {"measurement": "Resveratrol in supernatant, Initial", "setting": "[2]; target 80 ppm, pH 6.8, 25 C.", "result": 79, "unit": "ppm"},
      {"measurement": "Resveratrol in supernatant, 1 week", "setting": "[2]; [9]", "result": 24, "unit": "ppm"},
      {"measurement": "Resveratrol in supernatant, 1 week (% in parentheses)", "setting": "[2]; [9]", "result": 30, "unit": "%"},
      {"measurement": "Resveratrol in supernatant, 2.4 week", "setting": "[2]; [9]", "result": 16, "unit": "ppm"},
      {"measurement": "Resveratrol in supernatant, 2.4 week (% in parentheses)", "setting": "[2]; [9]", "result": 20, "unit": "%"},
      {"measurement": "Resveratrol in supernatant, 1 week", "setting": "[2]; [10]", "result": 45, "unit": "ppm"},
      {"measurement": "Resveratrol in supernatant, 1 week (% in parentheses)", "setting": "[2]; [10]", "result": 57, "unit": "%"},
      {"measurement": "Resveratrol in supernatant, 2.4 week", "setting": "[2]; [10]", "result": 43, "unit": "ppm"},
      {"measurement": "Resveratrol in supernatant, 2.4 week (% in parentheses)", "setting": "[2]; [10]", "result": 54, "unit": "%"}
    ]}
  ]
}
